Our source for the IC50 values is patent US11992494B2, “Cyclopentathiophene carboxamide derivatives as platelet activating factor receptor antagonists” (Boehringer Ingelheim International GmbH, priority 2021, dated 2024).

This experiment concerns the target PAFR (Homo sapiens, UniProt P25105). Briefly: cellular HTRF IP1 assay: inhibition of PAFR activation by PAF C-16 ligand (endpoint assay). Also on record: expressed in transfected cells; host or cells: HEK293. The experiment is classed as cell-based. On the procedure:
The ability of compounds of formula (I) to inhibit the activation of the PAF receptor (PAFR) by the PAF C-16 ligand (PAF) is determined using the following cellular HTRF IP1 assay (IP1 Gq assay kit from Cisbio, Cat. no.: 62IP1APEJ) in assay buffer (1×HBSS, 20 mM Hepes, pH 7.4, 50 mM LiCl and containing 0.1% (w/v) BSA):
Evaluation of the Inhibition of PAFR Activation Using an Endpoint Assay
HEK293 cells overexpressing human PAFR (produced in-house) are seeded into a Poly-D-Lysine coated 384 well white cell culture microtiter assay plate with lid (15.000 cells per well). Subsequently, the plates are incubated over night at 37° C./5% CO2. On the next day, cells are being washed and subsequently, various concentrations of the test compounds (compounds in 100% DMSO; final concentration of DMSO in wells is 1%) are added to the assay plate via Echo 555 acoustic liquid handler. Plates are then incubated with lid for 90 minutes at 37° C./5% CO2. Thereafter, PAF ligand (Cayman Chemical Company, Item no.: 60900) is added at a final concentration of 11 nM. Plates are then incubated with lid for 60 minutes at 37° C./5% CO2. Then, 5 μl per well of Anti-IP1-Antibody-Cryptate solution and 5 μl per well of IP1-d2 solution are added to all wells of the plate and the plate is incubated for another 60 minutes light protected at room temperature. The emissions at 620 nm and 665 nm (Excitation wavelength: 320 nm) are measured using an Envision Reader (PerkinElmer).

The mark [1] stands for this setting: HEK293 cells overexpressing human PAFR, PAF ligand 11 nM, Table 2.
Where [2] appears, read: dedicated head-to-head comparison assay run: cyclopropylene vs di-methyl / cyclobutylene analogues.

Each structure is given as a SMILES string.

PAFR, sequence (P25105 whole entry): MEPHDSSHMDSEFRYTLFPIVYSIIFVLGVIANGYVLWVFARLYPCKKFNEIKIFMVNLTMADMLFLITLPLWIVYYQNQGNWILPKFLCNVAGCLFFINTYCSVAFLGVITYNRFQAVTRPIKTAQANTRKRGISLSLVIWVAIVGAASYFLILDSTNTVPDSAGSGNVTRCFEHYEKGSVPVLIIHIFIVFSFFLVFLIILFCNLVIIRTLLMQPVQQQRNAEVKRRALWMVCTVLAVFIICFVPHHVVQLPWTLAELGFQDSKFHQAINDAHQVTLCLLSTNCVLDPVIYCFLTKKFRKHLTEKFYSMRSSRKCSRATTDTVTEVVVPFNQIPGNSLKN

On to `Cc1nnc2n1-c1sc3c(c1C(c1ccccc1Cl)=NC21CC1)C[C@H](C(=O)NC12CC(C1)C2)C3` [Example 1, (13′S)—N-{bicyclo[1.1.1]pentan-1-yl}-9′-(2-chlorophenyl)-3′-methyl-16′-thia-2′,4′,5′,8′-tetraazaspiro[cyclopropane-1,7′-tetracyclo[8.6.0.0^2,6.0^11,15]hexadecane]-1′(10′),3′,5′,8′,11′(15′)-pentaene-13′-carboxamide], for which the IC50 under setting [1] was found to be 1.3 nM.
`Cc1nnc2n1-c1sc3c(c1C(c1ccccc1Cl)=NC21CC1)C[C@H](C(=O)NC1CCC(F)(F)CC1)C3` [Example 118] registered a half-inhibitory concentration (IC50) under setting [1] of 2.8 nM.
For `Cc1nnc2n1-c1sc3c(c1C(c1ccccc1Cl)=NC21CC1)C[C@H](C(=O)N1CCC(F)(F)C1)C3` [Example 105, (13′S)-9′-(2-chlorophenyl)-13′-(3,3-difluoro-pyrrolidine-1-carbonyl)-3′-methyl-16′-thia-2′,4′,5′,8′-tetraazaspiro[cyclopropane-1,7′-tetracyclo[8.6.0.0^2,6.0^11,15]hexadecane]-1′(10′),3′,5′,8′,11′(15′)-pentaene], under setting [1], the IC50 turned out to be 3.6 nM.
The same measure, in the same setting: under `Cc1cc2n(n1)CC(NC(=O)[C@@H]1Cc3sc4c(c3C1)C(c1ccccc1Cl)=NC1(CC1)c1nnc(C)n1-4)CC2` (stereo partly shown) [Example 23] stands 9.9 nM.
Under setting [1], `Cc1nnc2n1-c1sc3c(c1C(c1ccccc1Cl)=NC21CC1)C[C@H](C(=O)N[C@H]1COC[C@H]1C(C)C)C3` [Example 88] had a half-inhibitory concentration (IC50) of 5.1 nM.
On the same count and under the same terms, the result for `Cc1nnc2n1-c1sc3c(c1C(c1ccccc1Cl)=NC21CC1)C[C@H](C(=O)N1CC2CC1C2)C3` [Example 11] reads 3.6 nM.
For the compound `Cc1nnc2n1-c1sc3c(c1C(c1ccccc1Cl)=NC21CC1)C[C@H](C(=O)NC1(C)CCC1)C3` [Example 38], the midpoint of inhibition under setting [1], the IC50, lay at 1.6 nM.
`Cc1nnc2n1-c1sc3c(c1C(c1ccccc1Cl)=NC21CC1)C[C@H](C(=O)NC1CC1(C)C)C3` (stereo partly shown) [Example 40] yielded a half-inhibitory concentration (IC50) under setting [1] of 1.9 nM.
Same read-out and setting: the result for `Cc1nnc2n1-c1sc3c(c1C(c1ccccc1)=NC21CC1)C[C@H](C(=O)N1CCOCC1)C3` [Example 120, (13′S)-3′-methyl-13′-(morpholine-4-carbonyl)-9′-phenyl-16′-thia-2′,4′,5′,8′-tetraazaspiro[cyclopropane-1,7′-tetracyclo[8.6.0.0^2,6.0^11,15]hexadecane]-1′(10′),3′,5′,8′,11′(15′)-pentaene] reads 14 nM; that for `Cc1nnc2n1-c1sc3c(c1C(c1ccccc1Cl)=NC21CC1)C[C@H](C(=O)N1CC(C)(C)C1)C3` [Example 65], 2.8 nM; that for `Cc1nnc2n1-c1sc3c(c1C(c1ccccc1Cl)=NC21CC1)C[C@H](C(=O)N[C@@H]1CCOC1)C3` [Example 95], 17 nM.
`Cc1nnc2n1-c1sc3c(c1C(c1ccccc1Cl)=NC21CC1)C[C@H](C(=O)N[C@@H]1COC[C@@H]1C)C3` [Example 30] gave an IC50 under setting [1] of 7.2 nM.
`Cc1nnc2n1-c1sc3c(c1C(c1ccccc1Cl)=NC21CC1)C[C@H](C(=O)N(C)C1CCCCCC1)C3` [Example 75]: 1.5 nM corresponded to half-maximal inhibition under setting [1] (IC50).
On the same count and under the same terms, the result for `Cc1nnc2n1-c1sc3c(c1C(c1ccccc1Cl)=NC21CC1)C[C@H](C(=O)NC1CCc2ncccc2C1)C3` (stereo partly shown) [Example 97] reads 8.9 nM.
With `Cc1nnc2n1-c1sc3c(c1C(c1ccccc1Cl)=NC21CC1)C[C@H](C(=O)N[C@H]1CC[C@H](C(C)(C)O)CC1)C3` [Example 98], half-maximal inhibition under setting [1] (IC50) was put at 9.1 nM.
`Cc1nnc2n1-c1sc3c(c1C(c1ccccc1Cl)=NC2(C)C)C[C@H](C(=O)NC1CCC1)C3` [reference compound]: the IC50 under setting [2] turned out to be 7.6 nM.
`Cc1nnc2n1-c1sc3c(c1C(c1ccccc1Cl)=NC21CC1)C[C@H](C(=O)N[C@H]1CCC(F)(F)C1)C3` [Example 24]: it took 2 nM to reach half-maximal inhibition under setting [1] (IC50).
Compound `Cc1nnc2n1-c1sc3c(c1C(c1ccccc1Cl)=NC21CC1)C[C@H](C(=O)NC1CCC2(CC1)CC2)C3` [Example 69] gave a half-inhibitory concentration (IC50) under setting [1] of 1.5 nM.
Under setting [2], `Cc1nnc2n1-c1sc3c(c1C(c1ccccc1Cl)=NC2(C)C)C[C@H](C(=O)N1CCC(F)(F)CC1)C3` [reference compound] displayed an IC50 of 30 nM.
As for `CCOC(=O)N1CCC(N(C)C(=O)[C@@H]2Cc3sc4c(c3C2)C(c2ccccc2Cl)=NC2(CC2)c2nnc(C)n2-4)CC1` [Example 72], under setting [1], the IC50 was 4.9 nM.
On to `CCn1ncc2c1CC[C@H](NC(=O)[C@@H]1Cc3sc4c(c3C1)C(c1ccccc1Cl)=NC1(CC1)c1nnc(C)n1-4)C2` [Example 100], for which the IC50 under setting [1] was determined as 22 nM.
For `Cc1nnc2n1-c1sc3c(c1C(c1ccccc1Cl)=NC21CC1)C[C@H](C(=O)NC1CCc2cnn(C)c2C1)C3` (stereo partly shown) [Example 54], the midpoint of inhibition under setting [1], the IC50, lay at 6.6 nM.
On to `Cc1nnc2n1-c1sc3c(c1C(c1ccccc1Cl)=NC21CC1)C[C@H](C(=O)N(C)C1CCC1)C3` [Example 21], for which the IC50 under setting [1] amounted to 1.1 nM.
`Cc1nnc2n1-c1sc3c(c1C(c1ccccc1Cl)=NC21CC1)C[C@H](C(=O)N[C@@H]1CCc2ccccc21)C3` [Example 32] gave a concentration for half-maximal inhibition (IC50) under setting [1] of 1 nM.
Under setting [1], `Cc1nnc2n1-c1sc3c(c1C(c1ccccc1Cl)=NC21CC1)C[C@H](C(=O)NC1CCc2ccc(F)cc21)C3` (stereo partly shown) [Example 22] registered an IC50 of 0.6 nM.
Same read-out and setting: the result for `Cc1nnc2n1-c1sc3c(c1C(c1ccccc1Cl)=NC21CC1)C[C@H](C(=O)N[C@@H]1c2ccccc2C[C@@H]1O)C3` [Example 50] reads 2.4 nM; that for `Cc1nnc2n1-c1sc3c(c1C(c1ccccc1Cl)=NC21CC1)C[C@H](C(=O)NC1(c2cncnc2)CC1)C3` [Example 117], 28 nM.
The same measure, in the same setting: under `Cc1nnc2n1-c1sc3c(c1C(c1ccccc1Cl)=NC21CC1)C[C@H](C(=O)N[C@@H]1CCc2c1ccnc2N)C3` [Example 103] stands 14 nM.
As to `Cc1nnc2n1-c1sc3c(c1C(c1ccccc1Cl)=NC21CC1)C[C@H](C(=O)N[C@H]1CC[C@@H](C(F)(F)F)CC1)C3` [Example 52], the midpoint of inhibition under setting [1], the IC50, lay at 1.8 nM.
As to `Cc1nnc2n1-c1sc3c(c1C(c1ccccc1Cl)=NC21CC1)C[C@H](C(=O)N(C)[C@H]1CC[C@H](O)CC1)C3` [Example 112], the concentration for half-maximal inhibition (IC50) worked out at 22 nM under setting [1] and 11.9 nM under setting [2].
`CCN(C(=O)[C@@H]1Cc2sc3c(c2C1)C(c1ccccc1Cl)=NC1(CC1)c1nnc(C)n1-3)[C@@H]1c2ccccc2C[C@H]1O` [Example 81]: the 50% inhibitory concentration (IC50) under setting [1] came out at 3.6 nM.
The same measure, in the same setting: the result for `Cc1nnc2n1-c1sc3c(c1C(c1ccccc1Cl)=NC21CC1)C[C@H](C(=O)N[C@H]1CCc2cccc(F)c21)C3` [Example 53] reads 0.5 nM; that for `Cc1nnc2n1-c1sc3c(c1C(c1ccccc1Cl)=NC21CC1)C[C@H](C(=O)NC1CCCC(F)(F)C1)C3` (stereo partly shown) [Example 25], 2.3 nM; that for `Cc1nnc2n1-c1sc3c(c1C(c1ccccc1Cl)=NC21CC1)C[C@H](C(=O)N[C@H]1C[C@H](S(C)(=O)=O)C1)C3` [Example 113], 28 nM.
Under setting [1], `Cc1nnc2n1-c1sc3c(c1C(c1ccccc1Cl)=NC21CC1)C[C@H](C(=O)NC1(CO)CCCCC1)C3` [Example 71] showed an IC50 of 3.9 nM.
The same measure, in the same setting: under `CCN(C(=O)[C@@H]1Cc2sc3c(c2C1)C(c1ccccc1Cl)=NC1(CC1)c1nnc(C)n1-3)C1CCCCC1` [Example 91] stands 1.5 nM.
Compound `CCCNC(=O)[C@@H]1Cc2sc3c(c2C1)C(c1ccccc1Cl)=NC1(CC1)c1nnc(C)n1-3` [Example 66] showed an IC50 under setting [1] of 2.4 nM and an IC50 under setting [2] of 2.3 nM.
As to `Cc1nnc2n1-c1sc3c(c1C(c1ccccc1Cl)=NC21CC1)C[C@H](C(=O)N[C@H]1COC[C@H]1C)C3` [Example 28], under setting [1], the half-inhibitory concentration (IC50) was determined as 6.8 nM.
The same measure, in the same setting: under `Cc1nnc2n1-c1sc3c(c1C(c1ccccc1Cl)=NC21CC1)C[C@H](C(=O)NC1(c2ccccc2)CC1)C3` [Example 46] stands 2 nM.
Same read-out and setting: under `Cc1nnc2n1-c1sc3c(c1C(c1ccccc1Cl)=NC21CC1)C[C@H](C(=O)N[C@H]1CCOC1)C3` [Example 78] stands 15 nM; under `Cc1nnc2n1-c1sc3c(c1C(c1ccccc1Cl)=NC21CC1)C[C@H](C(=O)N(C)C1CCCCC1)C3` [Example 44], 1.3 nM.
The same measure, in the same setting: under `Cc1nnc2n1-c1sc3c(c1C(c1ccccc1Cl)=NC21CC1)C[C@H](C(=O)N[C@H]1C[C@H]2OCCC[C@@H]12)C3` [Example 93] stands 5.2 nM; under `Cc1nnc2n1-c1sc3c(c1C(c1ccccc1Cl)=NC21CC1)C[C@H](C(=O)N1C[C@@H](C)O[C@H](C)C1)C3` [Example 123, (13′S)-9′-(2-chlorophenyl)-13′-[(2R,6R)-2,6-dimethylmorpholine-4-carbonyl]-3′-methyl-16′-thia-2′,4′,5′,8′-tetraazaspiro[cyclopropane-1,7′-tetracyclo[8.6.0.02,6.011,15]hexadecane]-1′(10′),3′,5′,8′,11′(15′)-pentaene], 5 nM.
With `Cc1nnc2n1-c1sc3c(c1C(c1ccccc1Cl)=NC21CC1)C[C@H](C(=O)NC1(C)CC1)C3` [Example 18], the IC50 under setting [1] stood at 3.4 nM.

Broadly, the IC50 is the concentration that inhibits the measured activity by half.
